system: Leishmania donovani amastigotes (strain MHOM/ET/67/L82); test: L. donovani axenic amastigote assay (resazurin); format: cell-based; details: Leishmania donovani, 72 h, pH 5.4, axenic amastigotes, pH 5.4, 72 h; mean of two independent measurements; read-out: IC50 L. donovani (Ldon)
Method: Leishmania donovani (axenic amastigote assay). […] Serial drug dilutions in duplicates were prepared covering a range from 30 to 0.041 µg/mL. […] The compounds used as positive controls in the various bioassays (see Table 1) were of commercial origin, with the exception of melarsoprol, which was a gift from WHO. Their purity (generally > 95%) was specified by the manufacturers.

Which IC50 does the source give for C=C1C(=O)OC2CC3(C)CC(OC(C)=O)CC(=C)C3CC12 (centres unmarked) [Compound 27] here?
The IC50 was 11.8 µM.

Which IC50 does the source give for CC1=CCCC2(C)OC2C2OC(=O)C(C)C2CC1 (centres unmarked) [Compound 35] here?
Its IC50 is 35.6 µM.

For CCCCCCCCCCCCCCCCOP(=O)([O-])OCC[N+](C)(C)C [miltefosine, reference compound], which IC50 is on record?
The IC50 was 0.27 µM.

With C=C1C(=O)OC2CC(C)C3C(OC(C)=O)CC(OC(C)=O)C3(C)CC12 (centres unmarked) [Compound 14] as the compound, how does the IC50 read?
The IC50 was 4.26 µM.

For C=C1C(=O)OC2CC(C)C3C(OC(C)=O)CC(O)C3(C)C(OC(C)=O)C12 (centres unmarked) [Compound 15], which IC50 is on record?
The IC50 was 8.68 µM.

With C=C1C(=O)OC2CC3(C)CCCC(C)C3=CC12 (centres unmarked) [Compound 29] as the compound, how does the IC50 read?
Its IC50 is 3.03 µM.

For CC(=O)OC1C2C(CC(C)C3C=CC(=O)C31C)OC(=O)C2C (centres unmarked) [Compound 6], which IC50 is on record?
Its IC50 is greater than 4 µM.

Which IC50 does the source give for C=C1C(=O)OC2C=C(C)C(O)CC3OC3(COC(C)=O)CC(OC(=O)C(C)=CC)C12 (centres unmarked) [Compound 40] here?
Its IC50 is 17.1 µM.

system: K1 strain of P. falciparum; test: Antiplasmodial [3H]-hypoxanthine incorporation assay; format: cell-based, Plasmodium falciparum; details: Plasmodium falciparum, K1, K1 strain (resistant to chloroquine and pyrimethamine); mean of two independent measurements; read-out: IC50 P. falciparum (Pfc)
Method: Plasmodium falciparum. Antiplasmodial activity was determined using the K1 strain of P. falciparum (resistant to chloroquine and pyrimethamine). A modification of the [3H]-hypoxanthine incorporation assay was used. Briefly, infected human red blood cells (final parasitaemia and haematocrit were 0.3% and 1.25%, respectively) in RPMI 1640 medium with 5% Albumax were exposed to serial drug dilutions in microtiter plates. After 48 hours of incubation at 37°C in a reduced oxygen atmosphere, 0.5 mCi 3H-hypoxanthine was added to each well. Cultures were incubated for a further 24 h before they were harvested onto glass-fiber filters and washed with distilled water. The radioactivity was counted using a BetaplateTM liquid scintillation counter (Wallac, Zurich, Switzerland). […] From the sigmoidal inhibition curves IC50 values were calculated. Assays were run in duplicate and repeated once.

For C=C1C(=O)OC2CC3(C)CC(OC(C)=O)CC(=C)C3CC12 (centres unmarked) [Compound 27], which IC50 is on record?
The IC50 was 9.21 µM.

Which IC50 does the source give for CC1=CCCC2(C)OC2C2OC(=O)C(C)C2CC1 (centres unmarked) [Compound 35] here?
Its IC50 is greater than 20 µM.

For C=C1C(=O)OC2CC(C)C3C(OC(C)=O)CC(OC(C)=O)C3(C)CC12 (centres unmarked) [Compound 14], which IC50 is on record?
Its IC50 is 8.94 µM.

Which IC50 does the source give for C=C1C(=O)OC2CC(C)C3C(OC(C)=O)CC(O)C3(C)C(OC(C)=O)C12 (centres unmarked) [Compound 15] here?
The IC50 was 5.98 µM.

Which IC50 does the source give for C=C1C(=O)OC2CC3(C)CCCC(C)C3=CC12 (centres unmarked) [Compound 29] here?
Its IC50 is 6.4 µM.

Which IC50 does the source give for C=C1C(=O)OC2C=C(C)C(O)CC3OC3(COC(C)=O)CC(OC(=O)C(C)=CC)C12 (centres unmarked) [Compound 40] here?
Its IC50 is 6.64 µM.

system: T. cruzi Tulahuen strain C2C4; test: In vitro activity against T. cruzi in L-6 host cells (beta-galactosidase/CPRG); format: cell-based, Trypanosoma cruzi; details: Trypanosoma cruzi, TULAHUEN, L6, 96 h, Tulahuen C2C4 in L-6 cells, 96 h; mean of two independent measurements; read-out: IC50 T. cruzi (Tcr)
Method: Trypanosoma cruzi. Rat skeletal myoblasts (L-6 cells) were seeded in 96-well microtiter plates at 2,000 cells/well in 100 µL RPMI 1640 medium with 10% FBS (fetal bovine serum) and 2 mM L-glutamine. After 24 hours the medium was removed and replaced by 100 µL per well containing 5,000 trypomastigote forms of T. cruzi Tulahuen strain C2C4 containing the β-galactosidase (Lac Z) gene. Fortyeight hours later the medium was removed from the wells and replaced by […] fresh medium with or without a serial drug dilution. Seven 3-fold dilutions were used covering a range from […]. Each drug was tested in duplicate. After 96 hours of incubation the plates were inspected under an inverted microscope to assure growth of the controls and sterility. Then the substrate CPRG/ Nonidet (50 µL) was added to all wells. A colour reaction developed within 2-6 hours and could be read photometrically at 540 nm.

For C=C1C(=O)OC2CC3(C)CC(OC(C)=O)CC(=C)C3CC12 (centres unmarked) [Compound 27], which IC50 is on record?
The IC50 was 24.3 µM.

For CC1=CCCC2(C)OC2C2OC(=O)C(C)C2CC1 (centres unmarked) [Compound 35], which IC50 is on record?
The IC50 was greater than 120 µM.

For C=C1C(=O)OC2CC(C)C3C(OC(C)=O)CC(OC(C)=O)C3(C)CC12 (centres unmarked) [Compound 14], which IC50 is on record?
Its IC50 is 14.7 µM.

With C=C1C(=O)OC2CC(C)C3C(OC(C)=O)CC(O)C3(C)C(OC(C)=O)C12 (centres unmarked) [Compound 15] as the compound, how does the IC50 read?
Its IC50 is 16.3 µM.

For C=C1C(=O)OC2CC3(C)CCCC(C)C3=CC12 (centres unmarked) [Compound 29], which IC50 is on record?
Its IC50 is 8.3 µM.

Which IC50 does the source give for CC(=O)OC1C2C(CC(C)C3C=CC(=O)C31C)OC(=O)C2C (centres unmarked) [Compound 6] here?
Its IC50 is 6.93 µM.

Which IC50 does the source give for C=C1C(=O)OC2C=C(C)C(O)CC3OC3(COC(C)=O)CC(OC(=O)C(C)=CC)C12 (centres unmarked) [Compound 40] here?
The IC50 was 11.8 µM.

system: not listed separately; test: in vitro; details: rat
Method: (§1) Trypanosoma brucei rhodesiense and cytotoxicity against L6 cells. Minimum Essential Medium with Earle’s salts (50 µL) supplemented with 0.2 mM 2-mercapto-ethanol, 1 mM Na-pyruvate and 15% heat-inactivated horse serum was added to each well of a 96-well microtiter plate. […] Then 10^4 bloodstream forms of Trypanosoma brucei rhodesiense STIB 900 in 50 µL of medium were added to each well and the plate incubated at 37°C under a 5% CO2 atmosphere for 72 hours. […] The plate was then read in a Spectramax Gemini XS microplate fluorometer (Molecular Devices Corporation, Sunnyvale, CA, USA) using an excitation wavelength of 536 nm and emission wavelength of 588 nm. Fluorescence development was measured and expressed as percentage of the control. Data were transferred into the graphic programme Softmax Pro (Molecular Devices) which calculated IC50 values. Cytotoxicity was assessed using a similar protocol and rat skeletal myoblasts (L6 cells). […] All following steps were according to the T. b. rhodesiense protocol.

For C=C1C(=O)OC2CC3(C)CCCC(C)C3=CC12 (centres unmarked) [Compound 29], which IC50 at 72 h is on record?
The IC50 at 72 h was 5.99 µM.

same assay, conditions: rat, IC50 Cytotoxicity (L6), L6 rat skeletal myoblasts, 72 h; mean of two independent measurements

For C=C1C(=O)OC2CC(C)C3C(OC(C)=O)CC(O)C3(C)C(OC(C)=O)C12 (centres unmarked) [Compound 15], which IC50 is on record?
Its IC50 is 7.28 µM.

With C=C1C(=O)OC2C=C(C)C(O)CC3OC3(COC(C)=O)CC(OC(=O)C(C)=CC)C12 (centres unmarked) [Compound 40] as the compound, how does the IC50 read?
Its IC50 is 6.67 µM.

same assay, conditions: rat, L6 cells (rat skeletal myoblasts)

Which IC50 at 72 h does the source give for C=C1C(=O)OC2CC3(C)CC(OC(C)=O)CC(=C)C3CC12 (centres unmarked) [Compound 27] here?
The IC50 at 72 h was 8.91 µM.

Which IC50 at 72 h does the source give for CC1=CCCC2(C)OC2C2OC(=O)C(C)C2CC1 (centres unmarked) [Compound 35] here?
Its IC50 at 72 h is 133 µM.

Which IC50 at 72 h does the source give for C=C1C(=O)OC2CC(C)C3C(OC(C)=O)CC(OC(C)=O)C3(C)CC12 (centres unmarked) [Compound 14] here?
The IC50 at 72 h was 8.43 µM.

For CC(=O)OC1C2C(CC(C)C3C=CC(=O)C31C)OC(=O)C2C (centres unmarked) [Compound 6], which IC50 at 72 h is on record?
The IC50 at 72 h was 3.06 µM.

system: Trypanosoma brucei rhodesiense STIB 900; test: In vitro activity against T. brucei rhodesiense bloodstream forms (Alamar blue); format: cell-based; details: Trypanosoma brucei, 72 h, bloodstream forms STIB 900, 72 h; mean of two independent measurements; read-out: IC50 T. brucei rhodes. (Tbr)
Method: as §1

For C=C1C(=O)OC2CC3(C)CC(OC(C)=O)CC(=C)C3CC12 (centres unmarked) [Compound 27], which IC50 is on record?
The IC50 was 10.7 µM.

For CC1=CCCC2(C)OC2C2OC(=O)C(C)C2CC1 (centres unmarked) [Compound 35], which IC50 is on record?
The IC50 was 49 µM.

With C=C1C(=O)OC2CC(C)C3C(OC(C)=O)CC(OC(C)=O)C3(C)CC12 (centres unmarked) [Compound 14] as the compound, how does the IC50 read?
The IC50 was 1.17 µM.

Which IC50 does the source give for C=C1C(=O)OC2CC(C)C3C(OC(C)=O)CC(O)C3(C)C(OC(C)=O)C12 (centres unmarked) [Compound 15] here?
The IC50 was 3.96 µM.

With C=C1C(=O)OC2CC3(C)CCCC(C)C3=CC12 (centres unmarked) [Compound 29] as the compound, how does the IC50 read?
The IC50 was 2.62 µM.

For CC(=O)OC1C2C(CC(C)C3C=CC(=O)C31C)OC(=O)C2C (centres unmarked) [Compound 6], which IC50 is on record?
The IC50 was 1.42 µM.

With C=C1C(=O)OC2C=C(C)C(O)CC3OC3(COC(C)=O)CC(OC(=O)C(C)=CC)C12 (centres unmarked) [Compound 40] as the compound, how does the IC50 read?
The IC50 was 0.698 µM.
